# Test results published in US11000038B2, “Pyridone compounds and agricultural and horticultural fungicides containing the same as active ingredients” (priority 2017, dated 2021).
# Columns and labels:
# [1] = test system: tomato late blight fungi (Phytophthora infestans); assay: whole plant or invertebrate; format: in vivo; settings: read-out: Test F control value class (tomato late blight)
# [2] = test system: gray mold fungi (Botrytis cinerea); assay: Test Example B: tomato gray mold, spray treatment of tomato plants; settings: in Solanum lycopersicum, read-out: Test B control value class (tomato gray mold)
# Text: [Test Example B] Tomato Gray Mold
# Test plants (tomato variety: Oogata Fukuju) were cultivated until three to five first leaves (true leaves) appeared after the sowing of seeds. In the test, the chemical solution was obtained by dissolving the compound of the present invention in a dimethylsulfoxide-methanol mixed solvent (volume ratio: 9/1) and appropriately diluting the resultant solution with well water so that the concentration was 250 ppm. The obtained chemical solution was sprayed to the test plants (2.5 ml/pot). The plants after the drying of the chemical liquid were inoculated with gray mold fungi (Botrytis cinerea) by spraying a conidial suspension of 4 to 8×10^5 conidia/ml. After the inoculation, the plants were allowed to stand, for about 48 hours, in a moist chamber with the room temperature of 20 to 23° C. to promote the onset of disease. The degree of disease development after 2 to 3 days from the inoculation was investigated to evaluate the effect of the chemical solution.
# (§1) With respect to each Test Example described above, the degree of disease development was evaluated as a value with increments of 0.05, regarding the degree of disease development for plants with no onset of disease as 0 and that for plants of untreated group as 3. Further, from the degrees of disease development, a control value was calculated according to the calculation formula below.
# (§2) n=Degree of disease development of each chemical treated group
# [3] = test system: cucumber anthracnose fungi (Colletotrichum orbiculare); assay: Test Example H: cucumber anthracnose, spray treatment of cucumber plants; settings: in Cucumis sativus, read-out: Test H control value class (cucumber anthracnose)
# Method: [Test Example H] Cucumber Anthracnose
# Test plants (cucumber variety: Sagami Hanjiro) were cultivated until one first leaf appeared after the sowing of seeds. In the test, the chemical solution was obtained by dissolving the compound of the present invention in a dimethylsulfoxide-methanol mixed solvent (volume ratio: 9/1) and appropriately diluting the resultant solution with well water so that the concentration was 250 ppm. The obtained chemical solution was sprayed to the test plants (2.5 ml/pot). The plants after the drying of the chemical liquid were inoculated with cucumber anthracnose fungi (Colletotrichum orbiculare) by spraying a conidial suspension of 2 to 4×10^5 conidia/ml. After the inoculation, the plants were allowed to stand, for about 24 hours, in a moist chamber with the room temperature of 20 to 23° C. to promote the onset of disease. The degree of disease development after 6 to 10 days from the inoculation was investigated to evaluate the effect of the chemical solution.
# as §1, §2
# [4] = test system: cabbage Alternaria sooty spot fungi (Alternaia brassicicola); assay: Test Example C: cabbage Alternaria sooty spot, spray treatment of cabbage plants; format: in vivo; settings: control value=100{1-(n/3)}, read-out: Test C control value class (cabbage Alternaria sooty spot)
# Text: [Test Example C] Cabbage Alternaria Sooty Spot
# Test plants (cabbage variety: Shikidori) were cultivated until the cotyledons extended after the sowing of seeds.
# <Control Value> Control value=100{1−(n/3)}
# [5] = test system: grape downy mildew fungus (Plasmopara viticola); assay: Test Example G: grape downy mildew, spray treatment of grape plants; settings: read-out: Test G control value class (grape downy mildew)
# Method: Test plants (grape variety: Neomuscat) were cultivated until three to four first leaves appeared after the sowing of seeds. In the test, the chemical solution was obtained by dissolving the compound of the present invention in a dimethylsulfoxide-methanol mixed solvent (volume ratio: 9/1) and appropriately diluting the resultant solution with well water so that the concentration was 250 ppm. The obtained chemical solution was sprayed to the test plants (2.5 ml/pot). The plants after the drying of the chemical liquid were inoculated with grape downy mildew fungus (Plasmopara viticola) by spraying a zoosporangial suspension of 1 to 2×10^4 zoosporangia/ml. After the inoculation, the plants were allowed to stand, for about 24 hours, in a moist chamber with the room temperature of 20° C. to promote the onset of disease. The degree of disease development after 7 to 10 days from the inoculation was investigated to evaluate the effect of the chemical solution.
# as §1, §2
# [6] = test system: wheat brown rust fungi (Puccinia recondita); assay: Test Example E: wheat brown rust, spray treatment of wheat plants; format: in vivo; settings: control value=100{1-(n/3)}, read-out: Test E control value class (wheat brown rust)
# [7] = test system: rice blast fungi (Magnaporthe grisea); assay: whole plant or invertebrate; format: in vivo; settings: Pyricularia oryzae, read-out: Test A control value class (rice blast)
SMILES,pest or weed control at 250 µg/mL [1],pest or weed control at 250 µg/mL [2],pest or weed control at 250 ppm [3],pest or weed control at 250 µg/mL [4],pest or weed control at 250 ppm [5],pest or weed control at 250 µg/mL [6],pest or weed control at 250 µg/mL [7]
"O=c1c(Br)cn(-c2cccnc2Cl)c(-c2c(F)cc(F)cc2F)c1Br [Compound 38, 3,5-dibromo-2′-chloro-2-(2,4,6-trifluorophenyl)-4H-[1,3′-bipyridin]-4-one]",> 50%,> 50%,> 50%,> 50%,> 50%,> 50%,> 50%
"O=c1c(Cl)cn(Cc2ccccc2)c(-c2c(F)cc(F)cc2F)c1Br [Compound 49, 1-benzyl-3-bromo-5-chloro-2-(2,4,6-trifluorophenyl)pyridin-4(1H)-one]",> 50%,> 50%,> 50%,> 50%,> 50%,> 50%,> 50%
"Cc1cc(-n2cc(Cl)c(=O)c(Br)c2-c2c(F)cc(F)cc2F)no1 [Compound 141, 3-bromo-5-chloro-1-(5-methylisoxazol-3-yl)-2-(2,4,6-trifluorophenyl)pyridin-4(1H)-one]",< 50%,> 50%,< 50%,> 50%,< 50%,> 50%,< 50%
"Cc1ccccc1-n1cc(C)c(=O)c(C)c1-c1c(F)cc(F)cc1F [Compound 174, 3,5-dimethyl-1-(o-toluyl)-2-(2,4,6-trifluorophenyl)pyridin-4(1H)-one]",< 50%,> 50%,> 50%,> 50%,> 50%,> 50%,> 50%
"COc1cc(F)c(-c2c(C)c(=O)c(C)cn2-c2ccccc2C)c(F)c1 [Compound 175, 2-(2,6-difluoro-4-methoxyphenyl)-3,5-dimethyl-1-(o-toluyl)pyridin-4(1H)-one]",< 50%,> 50%,> 50%,> 50%,> 50%,> 50%,> 50%
"COc1cc(F)c(-c2c(Cl)c(=O)c(Cl)cn2-c2ccccc2Cl)c(F)c1 [Compound 5, 3,5-dichloro-1-(2-chlorophenyl)-2-(2,6-difluoro-4-methoxyphenyl)pyridin-4(1H)-one]",< 50%,> 50%,> 50%,> 50%,> 50%,> 50%,> 50%
"O=c1c(Br)cn(-c2ccccc2Cl)c(-c2c(F)cc(F)cc2F)c1Cl [Compound 2, 5-bromo-3-chloro-1-(2-chlorophenyl)-2-(2,4,6-trifluorophenyl)pyridin-4(1H)-one]",< 50%,> 50%,> 50%,> 50%,> 50%,> 50%,> 50%
"Cc1onc(-n2cc(Cl)c(=O)c(Br)c2-c2c(F)cc(F)cc2F)c1Br [Compound 142, 3-bromo-1-(4-bromo-5-methylisoxazol-3-yl)-5-chloro-2-(2,4,6-trifluorophenyl)pyridin-4(1H)-one]",> 50%,> 50%,> 50%,> 50%,> 50%,> 50%,> 50%
"CCC(C)Cn1cc(Cl)c(=O)c(Cl)c1-c1c(F)cc(F)cc1F (centres unmarked) [Compound 162, 3,5-dichloro-1-(2-methylbutyl)-2-(2,4,6-trifluorophenyl)pyridin-4(1H)-one]",< 50%,> 50%,> 50%,> 50%,> 50%,> 50%,> 50%
"O=c1c(Br)cn(-c2ccccc2Cl)c(-c2c(F)cc(F)cc2F)c1Br [Compound 1, 3,5-dibromo-1-(2-chlorophenyl)-2-(2,4,6-trifluorophenyl)pyridin-4(1H)-one]",< 50%,> 50%,> 50%,> 50%,> 50%,> 50%,> 50%
"O=c1c(Cl)cn(-c2ccccc2Cl)c(-c2c(F)cc(F)cc2F)c1Cl [Compound 4, 3,5-dichloro-1-(2-chlorophenyl)-2-(2,4,6-trifluorophenyl)pyridin-4(1H)-one]",< 50%,> 50%,> 50%,> 50%,> 50%,> 50%,> 50%
